The term IC50 denotes the point on the concentration scale where inhibition reaches its midpoint.

This passage reports IC50 results from patent publication US20110269700A1, “GLUCOSIDE DERIVATIVES AND USES THEREOF” (NOVARTIS AG, priority 2008, published 2011).

One assay addresses T1, human SGLT1 (Homo sapiens, UniProt P13866).
T1 construct: expressed in transfected cells; host or cells: CHO-K1 or HEK293
T1 sequence (P13866 1-664): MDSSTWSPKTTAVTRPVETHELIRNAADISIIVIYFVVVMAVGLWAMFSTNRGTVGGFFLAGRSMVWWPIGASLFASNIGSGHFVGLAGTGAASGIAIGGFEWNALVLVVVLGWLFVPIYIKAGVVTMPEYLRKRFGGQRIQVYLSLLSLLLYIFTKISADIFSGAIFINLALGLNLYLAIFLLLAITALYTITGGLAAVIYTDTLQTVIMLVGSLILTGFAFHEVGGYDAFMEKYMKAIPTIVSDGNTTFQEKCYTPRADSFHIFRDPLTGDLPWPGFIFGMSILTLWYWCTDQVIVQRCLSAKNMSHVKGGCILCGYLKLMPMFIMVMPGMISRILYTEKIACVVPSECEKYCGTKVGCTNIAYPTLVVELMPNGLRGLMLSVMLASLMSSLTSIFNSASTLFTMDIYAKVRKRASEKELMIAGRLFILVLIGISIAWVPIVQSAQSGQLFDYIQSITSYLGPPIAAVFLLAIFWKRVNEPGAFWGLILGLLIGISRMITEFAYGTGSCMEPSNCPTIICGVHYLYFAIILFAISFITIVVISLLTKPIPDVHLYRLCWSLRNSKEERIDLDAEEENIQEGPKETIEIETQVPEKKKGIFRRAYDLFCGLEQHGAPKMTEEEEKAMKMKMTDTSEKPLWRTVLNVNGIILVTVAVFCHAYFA
Kind of assay: SGLT1 assay: 14C-AMG uptake in CHO-K1 or HEK293 cells expressing hSGLT1. The following applies: n = 1-4. It is filed as cell-based. Here is the method: To determine human SGLT1 inhibitory activity, an analogous test was set up in which the cDNA for hSGLTI (Genbank Ace. No. NM000343) instead of hSGLT2 cDNA is expressed in CHO-K1 or HEK293 cells. The uptake assay buffer in the case of the hSGLT1 assay contains 10 mM HEPES, 5 mM Tris, 140 mM NaCl, 2 mM KCl, 1 mM CaCl2, and 1 mM MgCl2, pH 7.4 containing 0.5 mM of α-methyl-D-glucopyranoside (AMG), 10 μM of [^14C]-α-methyl-D-glucopyranoside and different inhibitor concentrations.

Assay [1] has as its target T2, human sodium glucose cotransporter 2 (Homo sapiens, UniProt P31639).
T2 construct: expressed in transfected cells; host or cells: CHO-K1 (ATCC CCL-61) or HEK293 (ATCC CRL-1573), stably transfected with pZeoSV
T2 sequence (P31639 1-672): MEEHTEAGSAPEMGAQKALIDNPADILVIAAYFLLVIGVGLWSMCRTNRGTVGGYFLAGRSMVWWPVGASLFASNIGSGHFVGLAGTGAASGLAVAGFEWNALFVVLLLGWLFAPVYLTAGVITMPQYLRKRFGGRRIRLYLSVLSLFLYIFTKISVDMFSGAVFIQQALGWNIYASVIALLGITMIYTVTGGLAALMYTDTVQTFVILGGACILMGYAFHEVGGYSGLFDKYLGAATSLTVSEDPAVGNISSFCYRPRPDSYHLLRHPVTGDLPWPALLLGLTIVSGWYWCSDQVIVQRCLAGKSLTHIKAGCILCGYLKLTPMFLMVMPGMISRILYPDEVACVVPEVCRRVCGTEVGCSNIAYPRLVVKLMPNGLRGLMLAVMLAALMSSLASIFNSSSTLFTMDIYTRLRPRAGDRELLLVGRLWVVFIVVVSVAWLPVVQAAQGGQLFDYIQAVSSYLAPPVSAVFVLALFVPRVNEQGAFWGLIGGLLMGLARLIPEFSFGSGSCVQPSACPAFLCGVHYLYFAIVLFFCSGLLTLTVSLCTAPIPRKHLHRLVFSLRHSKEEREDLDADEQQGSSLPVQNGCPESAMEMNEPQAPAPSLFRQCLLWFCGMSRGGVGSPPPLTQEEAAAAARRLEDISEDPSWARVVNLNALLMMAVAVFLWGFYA
Kind of assay: SGLT2 assay: 14C-AMG uptake in CHO-hSGLT2 or HEK-hSGLT2 cells. In kind it is cell-based. The following applies: n = 1-4. The protocol:
These cell lines transport ^14C-labeled alpha-methyl-glucopyranoside (^14C-AMG, Amersham) into the interior of the cell in sodium-dependent manner.
The SGLT-2 assay is carried out as follows: CHO-hSGLT2 cells are cultivated in Ham's F12 Medium (BioWhittaker) with 10% fetal calf serum and 250 μg/mL zeocin (Invitrogen), and HEK293-hSGLT2 cells are cultivated in DMEM medium with 10% fetal calf serum and 250 μg/mL zeocin (Invitrogen). The cells are detached from the culture flasks by washing twice with PBS and subsequently treating with trypsin/EDTA. After the addition of cell culture medium the cells are centrifuged, resuspended in culture medium and counted in a Casy cell counter. Then 40,000 cells per well are seeded into a white, 96-well plate coated with poly-D-lysine and incubated overnight at 37° C., 5% CO2. The cells are washed twice with 250 μl of assay buffer (Hanks Balanced Salt Solution, 137 mM NaCl, 5.4 mM KCl, 2.8 mM CaCl2, 1.2 mM MgSO4 and 10 mM HEPES (pH 7.4), 50 μg/mL of gentamycin). 250 μl of assay buffer and 5 μl of test compound are then added to each well and the plate is incubated for a further 15 minutes in the incubator. 5 μl of 10% DMSO are used as the negative control. The reaction is started by adding 5 μl of 14 C-AMG (0.05 μCi) to each well. After 2 hours' incubation at 37° C., 5% CO2, the cells are washed again with 250 μl of PBS ([…]) and then lysed by the addition of 25 μl of 0.1 N NaOH (5 min. at 37° C.). 200 μl of MicroScint20 (Packard) are added to each well and incubation is continued for a further 20 min at 37° C. After this incubation the radioactivity of the 14 C-AMG absorbed is measured in a Topcount (Packard) using a 14 C scintillation program.

With `CCOc1ccc(Cc2cc([C@@H]3O[C@H](Cn4nncc4CO)[C@@H](O)[C@H](O)[C@H]3O)ccc2Cl)cc1` [Example 9, (2S, 3R, 4R, 5S, 6R)-2-[4-Chloro-3-(4-ethoxy-benzyl)-phenyl]-6-(5-hydroxymethyl-[1,2,3]triazol-1-ylmethyl)-tetrahydro-pyran-3,4,5-triol], the figures for the IC50 (against human SGLT1; in assay [1]) were more than 10000 nM and 94 nM, respectively. As for `CCOc1ccc(Cc2cc([C@@H]3O[C@H](Cn4cc(CO)nn4)[C@@H](O)[C@H](O)[C@H]3O)ccc2Cl)cc1` [Example 10, (2S, 3R, 4R, 5S, 6R)-2-[4-Chloro-3-(4-ethoxy-benzyl)-phenyl]-6-(4-hydroxymethyl-[1,2,3]triazol-1-ylmethyl)-tetrahydro-pyran-3,4,5-triol], the half-maximal inhibitory concentration (IC50) at human SGLT1 is 32000 nM; in assay [1] it was 50 nM. On to `CCOc1ccc(Cc2cc([C@@H]3O[C@H](Cn4cc(C(N)=O)nn4)[C@@H](O)[C@H](O)[C@H]3O)ccc2Cl)cc1` [Example 12, 1-{(2R,3S,4R,5R,6S)-6-[4-Chloro-3-(4-ethoxy-benzyl)-phenyl]-3,4,5-trihydroxy-tetrahydro-pyran-2-ylmethyl}-1H-[1,2,3]triazole-4-carboxylic acid amide], for which the half-inhibitory concentration (IC50) in assay [1] worked out at 81 nM.

Regarding `CCOc1ccc(Cc2cc([C@@H]3O[C@H](CNc4cccc(NC(C)=O)c4)[C@@H](O)[C@H](O)[C@H]3O)ccc2Cl)cc1` [Example 34, N-[3-({(2R,3S,4R,5R,6S)-6-[4-Chloro-3-(4-ethoxy-benzyl)-phenyl]-3,4,5-trihydroxy-tetrahydro-pyran-2-ylmethyl}-amino)-phenyl]-acetamide], the IC50 on human SGLT1 was determined as 1500 nM; in assay [1], 23 nM.

On to `CCOc1ccc(Cc2cc([C@@H]3O[C@H](CN(C)c4cccc(C(=O)N5CCCC5)c4)[C@@H](O)[C@H](O)[C@H]3O)ccc2Cl)cc1` [Example 37, [3-({(2R,3S,4R,5R,6S)-6-[4-Chloro-3-(4-ethoxy-benzyl)-phenyl]-3,4,5-trihydroxy-tetrahydro-pyran-2-ylmethyl}-methyl-amino)-phenyl]-pyrrolidin-1-yl-methanone], for which the IC50 turned out to be 280 nM at human SGLT1 and 10 nM in assay [1].
